Read-outs that look alike come from different tables or passages of the source.

One experiment addresses T1, DENV NS2B/NS3 (Dengue virus type 2, UniProt P29990).
T1 construct: the hydrophilic 40-residue core domain of NS2B (NS2B(H)-NS3pro); The used DENV protease construct contains the protease domain of NS3
Nature of the experiment: biochemical. The settings on record: for inhibition at 50 µM: read-out: DENV % inhibition at 50 µM; for inhibition at 50 µM / DENV % inhibition at 50 µM: 50 µM inhibitor, DENV-2 protease 100 nM, substrate 50 µM.

The target of another experiment is ZIKV NS2B/NS3 (Zika virus, UniProt A0A024B7W1, R1467A/R1531G). In words: ZIKV protease relative inhibition assay (fluorometric, Bz-Nle-Lys-Arg-Arg-AMC 10 µM). In kind it is biochemical. Conditions: 50 µM inhibitor, ZIKV protease 10 nM, substrate 10 µM.
The target of a further experiment is DENV-2 NS2B-NS3 protease (Dengue virus type 2, UniProt P29990). Nature of the experiment: DENV2 Reporter Gene Assay (DENV2proHeLa). In kind it is cell-based. The settings on record: for inhibition at 25 µM: M-HeLa, read-out: DENV2 proHeLa % inhibition at 25 µM; for EC50: read-out: DENV2 proHeLa EC50. The procedure: The DENV2proHeLa assay was performed as published previously. Stable cells were seeded into 96-well plates with a density of 2 × 10^4 cells per well and treated immediately with inhibitors of the DENV protease in a final volume of 100 μL. After incubation for 24 h at 37 °C, the medium was removed, and cells were lysed by adding 25 μL of lysis buffer (Promega) for 15 min at room temperature. Luciferase activity was recorded using a FLUOstar omega plate reader (BMG Labtech, Ortenberg, Germany) with injections of 100 μL per well of coelenterazine (2.75 μM in PBS). Luminescence was recorded for 5 s. Each concentration was assayed in triplicate. The percentage of inhibition was calculated in relation to the untreated control. For EC50 calculations, data were fitted and calculated with Prism 6.1 (GraphPad Software, Inc., San Diego, CA, USA) using a 4-parameter nonlinear dose-response curve with background subtraction (wells without cells).

The subject of a further experiment is serine protease of DENV. Also on record: method as in PMID 31769670. Conditions: cited from earlier work.
The subject of a further experiment is serine protease of ZIKV. Conditions: cited from earlier work.
The mark [1] stands for this setting: 25 µM, HeLa reporter cells, 24 h.

T1 sequence (P29990 1398-1437): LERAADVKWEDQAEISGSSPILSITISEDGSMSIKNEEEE
T1 sequence (P29990 1476-1653): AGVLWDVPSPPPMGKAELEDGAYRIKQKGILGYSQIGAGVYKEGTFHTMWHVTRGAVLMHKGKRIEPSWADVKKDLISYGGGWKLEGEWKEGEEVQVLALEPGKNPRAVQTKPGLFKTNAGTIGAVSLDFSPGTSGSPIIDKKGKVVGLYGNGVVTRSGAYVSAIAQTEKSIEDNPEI
DENV-2 NS2B-NS3 protease, sequence (P29990 1346-1653): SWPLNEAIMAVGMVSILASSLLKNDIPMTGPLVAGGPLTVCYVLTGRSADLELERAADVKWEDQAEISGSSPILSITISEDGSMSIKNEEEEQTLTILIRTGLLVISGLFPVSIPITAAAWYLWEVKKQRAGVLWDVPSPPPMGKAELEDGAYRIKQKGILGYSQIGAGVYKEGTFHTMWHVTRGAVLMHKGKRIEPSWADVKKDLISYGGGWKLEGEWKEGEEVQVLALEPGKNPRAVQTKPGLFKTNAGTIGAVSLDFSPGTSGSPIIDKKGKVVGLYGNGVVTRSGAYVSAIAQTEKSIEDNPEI

On DENV NS2B/NS3, `O=C(Nc1nc2cc(O)c(O)cc2s1)[C@@H]1CCCN1S(=O)(=O)c1ccccc1C(F)(F)F` [Compound 2] registered an IC50 of 5.1 ± 0.29 µM. Also, on ZIKV NS2B/NS3, the “ZIKV % inhibition at 50 µM” value turned out to be 49.6%. Also, the inhibition at 25 µM on DENV-2 NS2B-NS3 protease (setting [1]) turned out to be 27.7%.
In the same order, the values of `O=C(Nc1nc2cc(O)c(O)cc2s1)[C@@H]1CCCN1S(=O)(=O)c1cccc(C(F)(F)F)c1` [Compound 3] are 5 ± 0.29 µM, 36.6% and 46.6%.
In the same order, the values of `O=C(Nc1nc2cc(O)c(O)cc2s1)[C@@H]1CCCN1S(=O)(=O)c1ccc(C(F)(F)F)cc1` [Compound 4] are 5.6 ± 0.39 µM, 35.4% and 19.5%.
In turn, `O=C(Nc1nc2cc(O)c(O)cc2s1)[C@@H]1CCCN1S(=O)(=O)c1ccccc1[N+](=O)[O-]` [Compound 5, (S)-N-(5,6-Dihydroxybenzo[d]thiazol-2-yl)-1-((2-nitrophenyl)sulfonyl)pyrrolidine-2-carboxamide] registered an IC50 on DENV NS2B/NS3 of 8 ± 0.52 µM. Moreover, at DENV-2 NS2B-NS3 protease (setting [1]), the inhibition at 25 µM turned out to be 18.5%.
In the same order, the values of `O=C(Nc1nc2cc(O)c(O)cc2s1)[C@@H]1CCCN1S(=O)(=O)c1cccc([N+](=O)[O-])c1` [Compound 6, (S)-N-(5,6-Dihydroxybenzo[d]thiazol-2-yl)-1-((3-nitrophenyl)sulfonyl)pyrrolidine-2-carboxamide] are 6.4 ± 0.52 µM and 23.5%.
In the case of `O=C(Nc1nc2cc(O)c(O)cc2s1)[C@@H]1CCCN1S(=O)(=O)c1ccc([N+](=O)[O-])cc1` [Compound 7, (S)-N-(5,6-Dihydroxybenzo[d]thiazol-2-yl)-1-((4-nitrophenyl)sulfonyl)pyrrolidine-2-carboxamide, reference compound], the IC50 is 8.58 µM in the experiment with serine protease of DENV, 930 nM with serine protease of ZIKV and 5 ± 0.37 µM against DENV NS2B/NS3. Moreover, the inhibition at 25 µM on DENV-2 NS2B-NS3 protease (setting [1]) came to 43%.
With `O=C(Nc1nc2cc(O)c(O)cc2s1)[C@H]1CCCN1S(=O)(=O)c1ccccc1[N+](=O)[O-]` [Compound 14, (R)-N-(5,6-Dihydroxybenzo[d]thiazol-2-yl)-1-((2-nitrophenyl)sulfonyl)pyrrolidine-2-carboxamide], on DENV NS2B/NS3, the inhibition at 50 µM is 13.5%. Further, the “ZIKV % inhibition at 50 µM” value at ZIKV NS2B/NS3 is on record as 68.5%. The inhibition at 25 µM at DENV-2 NS2B-NS3 protease was found to be 17.7%.
Consider `O=C(Nc1nc2cc(O)c(O)cc2s1)[C@H]1CCCN1S(=O)(=O)c1cccc([N+](=O)[O-])c1` [Compound 15, (R)-N-(5,6-Dihydroxybenzo[d]thiazol-2-yl)-1-((3-nitrophenyl)sulfonyl)pyrrolidine-2-carboxamide], for which the inhibition at 50 µM on DENV NS2B/NS3 is 16.9%. On ZIKV NS2B/NS3, the “ZIKV % inhibition at 50 µM” value was 54.6%. For the same compound, the inhibition at 25 µM on DENV-2 NS2B-NS3 protease (setting [1]) came out at 26.9%.
For `O=C(Nc1nc2cc(O)c(O)cc2s1)[C@H]1CCCN1S(=O)(=O)c1ccc([N+](=O)[O-])cc1` [Compound 16, (R)-N-(5,6-Dihydroxybenzo[d]thiazol-2-yl)-1-((4-nitrophenyl)sulfonyl)pyrrolidine-2-carboxamide], at DENV NS2B/NS3, the inhibition at 50 µM came out at 40.7%. Further, the inhibition at 25 µM at DENV-2 NS2B-NS3 protease (setting [1]) stood at 51.3%.
Regarding `O=C(Nc1nc2cc(O)c(O)cc2s1)[C@@H]1CCCCN1S(=O)(=O)c1ccccc1C(F)(F)F` [Compound 17, (S)-N-(5,6-Dihydroxybenzo[d]thiazol-2-yl)-1-((2-(trifluoromethyl)phenyl)sulfonyl)piperidine-2-carboxamide], at DENV NS2B/NS3, the inhibition at 50 µM is 58.7%. On ZIKV NS2B/NS3, the “ZIKV % inhibition at 50 µM” value turned out to be 57.2%. Besides, the inhibition at 25 µM at DENV-2 NS2B-NS3 protease (setting [1]) worked out at 41.7%.
On to `O=C(Nc1nc2cc(O)c(O)cc2s1)[C@@H]1CCCCN1S(=O)(=O)c1cccc(C(F)(F)F)c1` [Compound 18, (S)-N-(5,6-Dihydroxybenzo[d]thiazol-2-yl)-1-((3-(trifluoromethyl)phenyl)sulfonyl)piperidine-2-carboxamide], for which, on DENV NS2B/NS3, the inhibition at 50 µM is 55.9%. In addition, the “ZIKV % inhibition at 50 µM” value at ZIKV NS2B/NS3 worked out at 42.2%. Further, at DENV-2 NS2B-NS3 protease (HeLa reporter cells, 24 h), the EC50 was determined as 12.8 ± 0.99 µM.
Regarding `O=C(Nc1nc2cc(O)c(O)cc2s1)[C@@H]1CCCCN1S(=O)(=O)c1ccc(C(F)(F)F)cc1` [Compound 19], the inhibition at 50 µM on DENV NS2B/NS3 came out at 51.3%. The EC50 at DENV-2 NS2B-NS3 protease (HeLa reporter cells, 24 h) stood at 20.3 ± 1.5 µM.
Regarding `O=C(Nc1nc2cc(O)c(O)cc2s1)[C@@H]1CCCCN1S(=O)(=O)c1ccccc1[N+](=O)[O-]` [Compound 20, (S)-N-(5,6-Dihydroxybenzo[d]thiazol-2-yl)-1-((2-nitrophenyl)sulfonyl)piperidine-2-carboxamide], the inhibition at 50 µM on DENV NS2B/NS3 turned out to be 29.6%. In addition, the inhibition at 25 µM at DENV-2 NS2B-NS3 protease (setting [1]) stood at 31.4%.
For `O=C(Nc1nc2cc(O)c(O)cc2s1)[C@@H]1CCCCN1S(=O)(=O)c1cccc([N+](=O)[O-])c1` [Compound 21, (S)-N-(5,6-Dihydroxybenzo[d]thiazol-2-yl)-1-((3-nitrophenyl)sulfonyl)piperidine-2-carboxamide], the “DENV % inhibition at 50 µM” value at DENV NS2B/NS3 is recorded as “n.i”. Also, the EC50 on DENV-2 NS2B-NS3 protease (HeLa reporter cells, 24 h) was 22 ± 1.5 µM.
Turning to `O=C(Nc1nc2cc(O)c(O)cc2s1)[C@@H]1CCCCN1S(=O)(=O)c1ccc([N+](=O)[O-])cc1` [Compound 22, (S)-N-(5,6-Dihydroxybenzo[d]thiazol-2-yl)-1-((4-nitrophenyl)sulfonyl)piperidine-2-carboxamide], at DENV NS2B/NS3, the inhibition at 50 µM amounted to 59.8%. Besides, the EC50 on DENV-2 NS2B-NS3 protease (HeLa reporter cells, 24 h) was 13.4 ± 1.2 µM.
On DENV NS2B/NS3, `O=C(Nc1nc2cc(O)c(O)cc2s1)[C@H]1CCCCN1S(=O)(=O)c1ccccc1C(F)(F)F` [Compound 23, (R)-N-(5,6-Dihydroxybenzo[d]thiazol-2-yl)-1-((2-(trifluoromethyl)phenyl)sulfonyl)piperidine-2-carboxamide] registered an IC50 of 41.8 ± 2.2 µM. The “ZIKV % inhibition at 50 µM” value at ZIKV NS2B/NS3 turned out to be 36.2%. The inhibition at 25 µM at DENV-2 NS2B-NS3 protease (setting [1]) was found to be 18.5%.
`O=C(Nc1nc2cc(O)c(O)cc2s1)[C@H]1CCCCN1S(=O)(=O)c1cccc(C(F)(F)F)c1` [Compound 24, (R)-N-(5,6-Dihydroxybenzo[d]thiazol-2-yl)-1-((3-(trifluoromethyl)phenyl)sulfonyl)piperidine-2-carboxamide]: on DENV NS2B/NS3, the IC50 was determined as 30.8 ± 1.7 µM. Besides, on ZIKV NS2B/NS3, the “ZIKV % inhibition at 50 µM” value amounted to 34.5%. Also, the EC50 at DENV-2 NS2B-NS3 protease (HeLa reporter cells, 24 h) worked out at 5.2 ± 0.43 µM.
Turning to `O=C(Nc1nc2cc(O)c(O)cc2s1)[C@H]1CCCCN1S(=O)(=O)c1ccc(C(F)(F)F)cc1` [Compound 25], the IC50 against DENV NS2B/NS3 turned out to be 22.3 ± 1.4 µM. In addition, the “ZIKV % inhibition at 50 µM” value at ZIKV NS2B/NS3 was 48.4%. Moreover, the inhibition at 25 µM at DENV-2 NS2B-NS3 protease (setting [1]) was determined as 38%.
In turn, `O=C(Nc1nc2cc(O)c(O)cc2s1)[C@H]1CCCCN1S(=O)(=O)c1ccccc1[N+](=O)[O-]` [Compound 26, (R)-N-(5,6-Dihydroxybenzo[d]thiazol-2-yl)-1-((2-nitrophenyl)sulfonyl)piperidine-2-carboxamide] yielded an IC50 against DENV NS2B/NS3 of 38.9 ± 4 µM. Besides, the inhibition at 25 µM at DENV-2 NS2B-NS3 protease (setting [1]) came out at 9.5%.
`O=C(Nc1nc2cc(O)c(O)cc2s1)[C@H]1CCCCN1S(=O)(=O)c1cccc([N+](=O)[O-])c1` [Compound 27, (R)-N-(5,6-Dihydroxybenzo[d]thiazol-2-yl)-1-((3-nitrophenyl)sulfonyl)piperidine-2-carboxamide]: the IC50 against DENV NS2B/NS3 was determined as 35 ± 2.1 µM. The EC50 on DENV-2 NS2B-NS3 protease (HeLa reporter cells, 24 h) worked out at 5.1 ± 0.53 µM.
Take `O=C(Nc1nc2cc(O)c(O)cc2s1)[C@H]1CCCCN1S(=O)(=O)c1ccc([N+](=O)[O-])cc1` [Compound 28, (R)-N-(5,6-Dihydroxybenzo[d]thiazol-2-yl)-1-((4-nitrophenyl)sulfonyl)piperidine-2-carboxamide]: the IC50 against DENV NS2B/NS3 was determined as 27 ± 1.6 µM. Further, the EC50 on DENV-2 NS2B-NS3 protease (HeLa reporter cells, 24 h) worked out at 9 ± 0.4 µM.
For “(S)-N-(5,6-Dihydroxybenzo[d]thiazol-2-yl)-1-(2-(trifluoromethyl)benzoyl)pyrrolidine-2-carboxamide [Compound 8]”, the “DENV % inhibition at 50 µM” value on DENV NS2B/NS3 is recorded as “n.i”. Further, on ZIKV NS2B/NS3, the “ZIKV % inhibition at 50 µM” value is recorded as “n.i”. Moreover, the “DENV2 proHeLa % inhibition at 25 µM” value at DENV-2 NS2B-NS3 protease (setting [1]) is “n.i”.
For the compound “(S)-N-(5,6-Dihydroxybenzo[d]thiazol-2-yl)-1-(3-(trifluoromethyl)benzoyl)pyrrolidine-2-carboxamide [Compound 9]”, the “DENV % inhibition at 50 µM” value at DENV NS2B/NS3 is reported as 55.9%. The “ZIKV % inhibition at 50 µM” value at ZIKV NS2B/NS3 was 56.5%. Also, on DENV-2 NS2B-NS3 protease (setting [1]), the “DENV2 proHeLa % inhibition at 25 µM” value is recorded as 42.2%.
Consider “(S)-N-(5,6-Dihydroxybenzo[d]thiazol-2-yl)-1-(4(trifluoromethyl)benzoyl)pyrrolidine-2-carboxamide [Compound 10]”, for which the “DENV % inhibition at 50 µM” value at DENV NS2B/NS3 stood at 16.8%. In addition, the “ZIKV % inhibition at 50 µM” value on ZIKV NS2B/NS3 came out at 39.2%. For the same compound, the “DENV2 proHeLa % inhibition at 25 µM” value at DENV-2 NS2B-NS3 protease (setting [1]) came to 15.4%.
